Laboratory results published in patent US6737383B1, “Herbicidal oxadiazolidines” (priority 1999, dated 2004).

Experiments:
wild oat = test: Test B pre/postemergence wild oat; format: in vivo, Avena fatua
Summary of the method: (§1)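 Test chemicals in a non-phytotoxic solvent mixture with surfactant were sprayed preemergence onto planted seeds and postemergence onto plants 2 to 18 cm tall (1- to 4-leaf stage). After twelve to sixteen days in a greenhouse, injury was visually rated against untreated controls from 0 (no effect) to 10 (complete control).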

bedstraw = test: Test B pre/postemergence bedstraw; format: in vivo, Galium aparine; details: Preemergence
Summary of the method: as §1

wheat = test: Test B pre/postemergence wheat; format: in vivo, Triticum aestivum
Summary of the method: as §1

blackgrass = test: Test B pre/postemergence blackgrass; format: in vivo, Alopecurus myosuroides
Summary of the method: as §1

smallflower flatsedge = test: Test B flood test smallflower flatsedge; format: in vivo, Cyperus difformis
Summary of the method: (§2)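 Each value is a visual injury score relative to controls, with 10 meaning complete control and 0 no effect. Evaluation took place twelve to sixteen days after the 2-leaf-stage plants were treated and kept in the greenhouse.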

velvetleaf = test: Test B pre/postemergence velvetleaf; format: in vivo, Abutilon theophrasti
Summary of the method: as §1

surinam grass = test: Test B pre/postemergence surinam grass; format: in vivo, Brachiaria decumbens
Summary of the method: as §1

pigweed = test: Test B pre/postemergence pigweed; format: in vivo, Amaranthus retroflexus
Summary of the method: as §1

purple nutsedge = test: Test B pre/postemergence purple nutsedge; format: in vivo, Cyperus rotundus
Summary of the method: as §1

duck salad = test: Test B flood test duck salad; format: in vivo, Heteranthera limosa
Summary of the method: as §2

soybean = test: Test B pre/postemergence soybean; format: in vivo, Glycine max
Summary of the method: as §1

morningglory = test: Test B pre/postemergence morningglory; format: in vivo, Ipomoea hederacea
Summary of the method: as §1

giant foxtail = test: Test B pre/postemergence giant foxtail; format: in vivo, Setaria faberii
Summary of the method: as §1

bamyardgrass = test: Test B flood test barnyardgrass; format: in vivo, Echinochloa crus-galli
Summary of the method: as §2

rape = test: Test B pre/postemergence rape; format: in vivo, Brassica napus
Summary of the method: as §1

cocklebur = test: Test B pre/postemergence cocklebur; format: in vivo, Xanthium strumarium
Summary of the method: as §1

[1] = Postemergence, Rate 500 g/ha, scale of 0 to 10 where 0 is no effect and 10 is complete control
[2] = Preemergence, Rate 62 g/ha, scale 0 to 10 (0 no effect, 10 complete control)
[3] = Preemergence, Rate 125 g/ha, scale of 0 to 10 where 0 is no effect and 10 is complete control
[4] = Preemergence, Rate 250 g/ha, scale 0 to 10, 0 is no effect, 10 is complete control
[5] = Preemergence, Rate 500 g/ha, scale 0 to 10, 0 is no effect, 10 is complete control
[6] = Postemergence, Rate 125 g/ha, scale 0 to 10, 0 is no effect, 10 is complete control
[7] = Postemergence, Rate 250 g/ha, scale 0 to 10, 0 is no effect, 10 is complete control
[8] = Preemergence, Rate 250 g/ha, scale of 0 to 10 where 0 is no effect and 10 is complete control
[9] = Rate 62 g/ha, Postemergence, scale of 0 to 10 where 0 is no effect and 10 is complete control
[10] = Rate 62 g/ha, flood test species, Pre-emergence, visual evaluation after twelve to sixteen days
[11] = Rate 125 g/ha, under heading Pre-emergence, flood test species, visual evaluation after twelve to sixteen days
[12] = Rate 250 g/ha, Pre-emergence, flood-test species, scale 0 to 10, 0 is no effect, 10 is complete control
[13] = Rate 500 g/ha, Pre-emergence, flood test species, scale 0 to 10 (0 no effect, 10 complete control)

## Cc1nc(Cl)sc1C(C)n1c(=O)on(C(=O)N(c2ccccc2)C(C)C)c1=O (stereo not drawn) [Compound 407]
Wild oat; [1]
  Wild oats plant response rating: 0
Wild oat; [2]
  Plant response rating, Wild oats: 0
Wild oat; [3]
  Plant response rating, Wild oats: 0
Wild oat; [4]
  Wild oats plant response rating: 0
Wild oat; [5]
  Wild oats plant response rating: 0
bedstraw; Rate 62 g/ha, scale 0 to 10 (0 no effect, 10 complete control)
  Plant response rating, Bedstraw: 0
bedstraw; Rate 125 g/ha, scale of 0 to 10 where 0 is no effect and 10 is complete control
  Plant response rating, Bedstraw: 0
bedstraw; Rate 250 g/ha, scale of 0 to 10 where 0 is no effect and 10 is complete control
  Bedstraw plant response rating: 0
bedstraw; Rate 500 g/ha, scale 0 to 10, 0 is no effect, 10 is complete control
  Bedstraw plant response rating: 0
wheat; [1]
  Wheat plant response rating: 0
wheat; [2]
  Plant response rating, Wheat: 0
wheat; [3]
  Plant response rating, Wheat: 0
wheat; [4]
  Wheat plant response rating: 0
wheat; [5]
  Wheat plant response rating: 0
blackgrass; [6]
  Plant response rating, Blackgrass: 0
blackgrass; [7]
  Plant response rating, Blackgrass: 0
blackgrass; [1]
  Blackgrass plant response rating: 7
blackgrass; [2]
  Plant response rating, Blackgrass: 0
blackgrass; [3]
  Plant response rating, Blackgrass: 0
blackgrass; [8]
  Blackgrass plant response rating: 0
blackgrass; [5]
  Blackgrass plant response rating: 0
blackgrass; [9]
  Blackgrass plant response rating: 0
Smallflower flatsedge; [10]
  Plant response rating, S. Flatsedge (0 to 10 scale, 0 is no effect, 10 is complete control): 0
Smallflower flatsedge; [11]
  S. Flatsedge plant response rating (0 to 10 scale, 0 is no effect, 10 is complete control): 0
Smallflower flatsedge; [12]
  S. Flatsedge plant response rating: 0
Smallflower flatsedge; [13]
  S. Flatsedge plant response rating: 0
velvetleaf; [7]
  Plant response rating, Velvetleaf: 0
velvetleaf; [1]
  Velvetleaf plant response rating: 2
velvetleaf; [2]
  Plant response rating, Velvetleaf: 0
velvetleaf; [3]
  Plant response rating, Velvetleaf: 0
velvetleaf; [4]
  Velvetleaf plant response rating: 0
velvetleaf; [5]
  Velvetleaf plant response rating: 0
Surinam grass; [6]
  Plant response rating, B. signalgrass: 0
Surinam grass; [7]
  Plant response rating, B. signalgrass: 0
Surinam grass; [1]
  B. signalgrass plant response rating: 0
Surinam grass; [2]
  Plant response rating, B. signalgrass: 0
Surinam grass; [3]
  Plant response rating, B. signalgrass: 0
Surinam grass; [8]
  B. signalgrass plant response rating: 0
Surinam grass; Preemergence, Rate 500 g/ha, scale of 0 to 10 where 0 is no effect and 10 is complete control
  B. signalgrass plant response rating: 0
Surinam grass; [9]
  B. signalgrass plant response rating: 0
pigweed; [7]
  Plant response rating, Redroot pigweed: 0
pigweed; [1]
  Redroot pigweed plant response rating: 0
pigweed; [2]
  Plant response rating, Redroot pigweed: 0
pigweed; [3]
  Plant response rating, Redroot pigweed: 0
pigweed; [4]
  Redroot pigweed plant response rating: 0
pigweed; [5]
  Redroot pigweed plant response rating: 0
Purple nutsedge; [7]
  Plant response rating, Nutsedge: 0
Purple nutsedge; [1]
  Nutsedge plant response rating: 0
Purple nutsedge; [2]
  Plant response rating, Nutsedge: 0
Purple nutsedge; [3]
  Plant response rating, Nutsedge: 0
Purple nutsedge; [4]
  Nutsedge plant response rating: 0
Purple nutsedge; [5]
  Nutsedge plant response rating: 0
Duck salad; [10]
  Plant response rating, Ducksalad (0 to 10 scale, 0 is no effect, 10 is complete control): 0
Duck salad; [11]
  Ducksalad plant response rating (0 to 10 scale, 0 is no effect, 10 is complete control): 0
Duck salad; [12]
  Ducksalad plant response rating: 0
Duck salad; [13]
  Ducksalad plant response rating: 0
soybean; [7]
  Plant response rating, Soybean: 2
soybean; [1]
  Soybean plant response rating: 2
soybean; [2]
  Plant response rating, Soybean: 0
soybean; [3]
  Plant response rating, Soybean: 0
soybean; [4]
  Soybean plant response rating: 0
soybean; [5]
  Soybean plant response rating: 0
morningglory; [7]
  Plant response rating, Morningglory: 10
morningglory; [1]
  Morningglory plant response rating: 10
morningglory; [2]
  Plant response rating, Morningglory: 0
morningglory; [3]
  Plant response rating, Morningglory: 0
morningglory; [4]
  Morningglory plant response rating: 0
morningglory; [5]
  Morningglory plant response rating: 0
Giant foxtail; [6]
  Plant response rating, Giant foxtail: 0
Giant foxtail; [7]
  Plant response rating, Giant foxtail: 3
Giant foxtail; [1]
  Giant foxtail plant response rating: 8
Giant foxtail; [2]
  Plant response rating, Giant foxtail: 0
Giant foxtail; [3]
  Plant response rating, Giant foxtail: 6
Giant foxtail; [4]
  Giant foxtail plant response rating: 9
Giant foxtail; [5]
  Giant foxtail plant response rating: 10
Giant foxtail; [9]
  Giant foxtail plant response rating: 0
bamyardgrass; [10]
  Plant response rating, Barnyardgrass (0 to 10 scale, 0 is no effect, 10 is complete control): 0
bamyardgrass; [11]
  Barnyardgrass plant response rating (0 to 10 scale, 0 is no effect, 10 is complete control): 0
bamyardgrass; [12]
  Barnyardgrass plant response rating: 0
bamyardgrass; [13]
  Barnyardgrass plant response rating: 0
rape; [7]
  Plant response rating, Rape: 0
rape; [2]
  Plant response rating, Rape: 0
rape; [3]
  Plant response rating, Rape: 0
rape; [4]
  Rape plant response rating: 0
rape; [5]
  Rape plant response rating: 0
cocklebur; [6]
  Plant response rating, Cocklebur: 0
cocklebur; [7]
  Plant response rating, Cocklebur: 0
cocklebur; [1]
  Cocklebur plant response rating: 0
cocklebur; [2]
  Plant response rating, Cocklebur: 0
cocklebur; [3]
  Plant response rating, Cocklebur: 0
cocklebur; [4]
  Cocklebur plant response rating: 0
cocklebur; [5]
  Cocklebur plant response rating: 0
cocklebur; [9]
  Cocklebur plant response rating: 0
